≈ marks a conversion by molar mass, not a printed value.
Test: physchem
Format: physicochemical
Settings: organic solvent or mixture

solubility: ~136 mg/mL (≈ 354 mM)
Compound: CCC1C(C)=NN=C(c2ccc(OC)c(OC)c2)c2cc(OC)c(OC)cc21 (racemic) [racemic tofisopam, 1-(3,4-dimethoxyphenyl)-4-methyl-5-ethyl-7,8-dimethoxy-5H-2,3-benzodiazepine]

Source: patent publication US7265106B2, “Method for isolating (R)-tofisopam” (Vela Aquisition Corporation, priority 2003, dated 2007)
